# Measurements taken from patent publication US12257214B2, “Compositions and methods comprising deoxy-pentitols” (The Charlotte Mecklenburg Hospital Authority, priority 2021, dated 2025).
# pIC50: −log10 of the molar value.
# Key:
# Assay type in all cases: cell-based
# [1] = test system: prostate cancer cell line LNCaP; experiment: LNCaP cell culture, growth and death (FIG. 5, FIG. 10)
# Description: A dose dependent decrease in cell density was clearly detected with 2-deoxyribitol treatment, but not with ribitol treatment.
# (§1) Less than 50% of cells and 10% of cells were detected with the treatment of 10 mM and 50 mM 2-deoxyribitol, respectively.
# [2] = test system: MIA PaCa-2; experiment: ATPlite cell IC50 screening, MIA PaCa-2; settings: Homo sapiens; MIA PaCa-2, Pancreatic ductal adenocarcinoma; ATPlite luminescence
# Description: (§2) In brief, the cells were cultures in relevant medium and treated with a range of 9 doses of 2-deoxyribitol, from 10 mM, 5 mM, 2.5 mM, 1.25 mM, 0.62 mM, 0.31 mM, 0.08 mM, and 0.04 mM. Cells were diluted in the corresponding ATCC recommended medium and dispensed in a 384-well plate, depending on the cell line used, at a density of 100-6400 cells per well in 45 μl medium. For each used cell line the optimal cell density was used. The margins of the plate were filled with phosphate-buffered saline. Plated cells were incubated in a humidified atmosphere of 5% CO2 at 37° C. After 24 hours, 5 μl of compound dilution was added and plates were further incubated. At the end of experiment (t=end), 24 μl of ATPlite 1Step™ (PerkinElmer) solution was added to each well, and subsequently shaken for 2 minutes. After 10 minutes of incubation in the dark, the luminescence was recorded on an Envision multimode reader (PerkinElmer). IC50 was determined in comparison with the control samples. The cell lines tested and their corresponding disease model is indicated the left-most and middle columns, respectively. IC50 values are given in μM values in the right-most column. This screening was performed of a list of cancer cells to establish IC50 values for each of the cancer cell lines. This screening provides evidence for the potential of 2DR to treat many cancer types.
# [3] = test system: alpha dystroglycan (α-DG); experiment: Glycosylation of alpha dystroglycan
# Description: This invention applies a synthetic molecule, 2-deoxyribitol, to treat cancer for growth inhibition and cancer cell killing. Naturally-occurring ribitol is a metabolite, but its metabolic pathway has not been clearly defined. Recently, ribitol has been identified as a precursor of CDP-ribitol, the substrate used for the synthesis of sugar modification of a membrane protein, alpha dystroglycan (α-DG). […] The loss or reduced expression of glycosylation of α-DG has been linked to cancer progression and metastasis in breast and other cancers in clinics, and enhanced glycosylation of α-DG may inhibit cancer cell growth and tumorigenicity. This study screened several different pentose and pentitol molecules including ribose, 2-deoxyribose, ribulose, 2-deoxyribitol, xylose, and xylitol to evaluate these sugar molecules for the effects of enhancing glycosylation of α-DG and inhibiting cancer cell growth/tumorigenicity.
# [4] = test system: SUP-T1; experiment: ATPlite cell IC50 screening, SUP-T1; settings: Homo sapiens; SUP-T1, Childhood T lymphoblastic lymphoma; ATPlite luminescence
# Description: as §2
# [5] = test system: MCF7 cells; experiment: Anchorage independent growth, tumor colonies in agar gel (FIG. 3); settings: 20 days
# Description: Stars indicate a significant difference as compared to the control (p<0.01, n=3).
# (§3) However, this effect was not related to the enhanced expression of glycosylation of α-DG.
# [6] = test system: hepatocarcinoma HEPG2 cells; experiment: HEPG2 cell culture, growth and death (FIG. 6)
# Description: The cells grow into large sheets (Control; top left panel), but remain tightly packed with limited cytoplasm. Cells were treated with 5 mM (top middle panel), 10 mM (top right panel), 20 mM (bottom left panel), or 40 mM (bottom right panel) 2-deoxyribitol (Drug). A dose-dependent decrease in cell density and increase in volume of cytoplasm is observed with the drug treatment.
# 2-deoxyribitol was also found to be effective at inhibiting the growth of and inducing cell death in the hepatocarcinoma cell HEPG2. […] HEPG2 cells have a clonal growth pattern with tightly-packed cells growing out to fill the surrounding empty space. […] Small numbers of cell death were also detected in the remaining narrow areas where the size of the cells was relatively smaller than those of surrounding cells.
# [7] = test system: BT-549; experiment: ATPlite cell IC50 screening, BT-549; settings: Homo sapiens; BT-549, Invasive ductal carcinoma; ATPlite luminescence
# Description: as §2
# [8] = test system: SW982; experiment: ATPlite cell IC50 screening, SW982; settings: Homo sapiens; SW982, Biphasic synovial sarcoma; ATPlite luminescence
# Description: as §2
# [9] = test system: BxPC-3; experiment: ATPlite cell IC50 screening, BxPC-3; settings: Homo sapiens; BxPC-3, Pancreatic ductal adenocarcinoma; ATPlite luminescence
# Description: as §2
# [10] = test system: DU4475; experiment: ATPlite cell IC50 screening, DU4475; settings: Homo sapiens, DU-4475; DU4475, Breast carcinoma; ATPlite luminescence
# Description: as §2
# [11] = test system: SW620; experiment: ATPlite cell IC50 screening, SW620; settings: Homo sapiens, SW-620; SW620, Colon adenocarcinoma; ATPlite luminescence
# Description: as §2
# [12] = test system: SW48; experiment: ATPlite cell IC50 screening, SW48; settings: Homo sapiens; SW48, Colon adenocarcinoma; ATPlite luminescence
# Description: as §2
# [13] = test system: RPMI-7951; experiment: ATPlite cell IC50 screening, RPMI-7951; settings: Homo sapiens; RPMI-7951, Melanoma; ATPlite luminescence
# Description: as §2
# [14] = test system: A-427; experiment: ATPlite cell IC50 screening, A-427; settings: Homo sapiens; A-427, Lung adenocarcinoma; ATPlite luminescence
# Description: as §2
# [15] = test system: SJCRH30; experiment: ATPlite cell IC50 screening, SJCRH30; settings: SJCRH30, Alveolar rhabdomyosarcoma; ATPlite luminescence
# Description: as §2
# [16] = test system: SW948; experiment: ATPlite cell IC50 screening, SW948; settings: Homo sapiens; SW948, Colon adenocarcinoma; ATPlite luminescence
# Description: as §2
# [17] = test system: VA-ES-BJ; experiment: ATPlite cell IC50 screening, VA-ES-BJ; settings: Epithelioid sarcoma, ATPlite luminescence
# Description: as §2
# [18] = test system: RS4-11; experiment: ATPlite cell IC50 screening, RS4-11; settings: Homo sapiens; RS4-11, Adult B acute lymphoblastic leukemia; ATPlite luminescence
# Description: as §2
# [19] = test system: J82; experiment: ATPlite cell IC50 screening, J82; settings: Homo sapiens; J82, Bladder carcinoma; ATPlite luminescence
# Description: as §2
# [20] = test system: MDA231 cells (triple negative breast cancer cell); experiment: MDA231 cell growth
# Description: as §3, §1
# [21] = test system: LS411N; experiment: ATPlite cell IC50 screening, LS411N; settings: Homo sapiens, LS-411N, Cecum adenocarcinoma, ATPlite luminescence
# Description: as §2
# [22] = test system: A-172; experiment: ATPlite cell IC50 screening, A-172; settings: Homo sapiens; A-172, Glioblastoma; ATPlite luminescence
# Description: as §2
smiles,measurement,setting,value
OCC[C@H](O)[C@H](O)CO [2-deoxyribitol],cells detected after treatment,"[1]; 10 mM, 4 days",Less than 50%
same,number of cancer cells / anticancer effect,"[1]; 10 mM, 7 days (FIG. 10)",markedly reduces the number of cancer cells
same,cells detected after treatment,"[1]; 50 mM, 4 days",< 10%
same,"effect on cell growth, death and cell density","[1]; 2-50 mM, 4 days",dose dependent inhibition in cell growth and death
same,pIC50,[2],2.31
same,glycosylation of α-DG,[3],did not enhance glycosylation of α-DG
same,pIC50,[4],2.51
same,cell colonies in agar culture,[5]; 10 mM,absence of cell colony
same,anchorage independent growth (formation of tumor colonies within agar gel),[5]; 10 mM and 20 mM,significantly inhibited
same,effect on number of cells and cytoplasm,"[6]; HEPG2, 5-40 mM",decreased the number of cells with increasing amount of cytoplasm dose-dependently
same,cell size relative to control cells,"[6]; HEPG2, majority of cells, dose of 20 mM or higher",three or more times larger
same,pIC50,[7],2.37
same,pIC50,[8],2.56
same,pIC50,[9],2.11
same,pIC50,[10],2.24
same,pIC50,[11],2.28
same,pIC50,[12],2.35
same,pIC50,[13],2.17
same,pIC50,[14],2.40
same,pIC50,[15],2.35
same,pIC50,[16],2.60
same,pIC50,[17],2.28
same,pIC50,[18],2.51
same,pIC50,[19],2.44
same,inhibitory effect as seen in MCF7 (growth / anchorage independent growth),"[20]; MDA231, concentrations lower than 10 mM",clearly demonstrated
same,inhibiting cell growth,[20]; MDA231 cells,had an effect on inhibiting cell growth
same,pIC50,[21],2.16
same,pIC50,[22],< 2.00
